Laboratory results from PMC10683025, “Discovery of a Hydroxylamine-Based Brain-Penetrant EGFR Inhibitor for Metastatic Non-Small-Cell Lung Cancer” (Journal of Medicinal Chemistry, 2023).
In brackets after ≈: the same amount, converted by molar mass. Read-outs that look alike come from different tables or passages of the source.

Experiments:
Plasma stability [1] = type: in vitro ADME, Sprague-Dawley rat; settings: for Remaining Percentages / t1/2: rat plasma; for t1/2: ∞ = no degradation
Description: (§1) Assessment of compounds to determine stability in incubations containing plasma of human (Pharmaron) and Sprague-Dawley rat (IPHASE) was performed by Pharmaron, Inc. using the compound […] approach. Compounds were assessed in duplicate (n = 2) and incubated in plasma at 5 μM and samples (50 μL) were taken at 0, 15, 30, 60, and 120 min time points for analysis by LC-MS/MS. Peak area ratios were determined from the extracted ion chromatogram and the percent compound remaining at each time point was calculated by the following equation: [drawing 2] where peak area ratiot min is the peak area ratio of control and test compound at t min and peak area ratio0 min is the peak area ratio of control and test compound at zero time point.

[2] = Metabolic stability in hepatocytes; type: in vitro ADME, Sprague-Dawley rat; settings: for hepatocyte CLint at 2 h, 1 µM / half-life at 2 h, 1 µM: Sprague-Dawley, rat, hepatocytes; for half-life at 2 h, 1 µM: read-out: HEP t1/2; for Remaining Percentages: rat hepatocytes
Description: Microsome stability was assessed in duplicate (n = 2) in the presence and absence of nicotinamide adenine dinucleotide phosphate (NADPH) with liver microsomes (0.5 mg/mL) from human (BD Gentest) and Sprague-Dawley rats (BD Gentest). Compounds were incubated in liver microsomes at 1 μM and samples (30 μL) were taken at 0.5, 15, 30, 45, and 60 min time points for analysis by LC-MS/MS. Hepatocyte stability was assessed in duplicate (n = 2) at a working cell density of 0.5 × 10^6 cells/mL with hepatocytes from human (BiolVT), Sprague-Dawley rat (BiolVT), cynomolgus monkey (RILD) or beagle dog (BiolVT). […] The in vitro half-life and intrinsic clearances were determined as previously described.[76]
In vitro half-life (in vitro t1/2) was determined from the slope value in [drawing 1] where k was determined by linear regression of the natural logarithm of the remaining percentage of the parent drug vs the incubation time curve.

[3] = system: Ba/F3 EGFR-L858R/C797S cells; experiment: CellTiter-Glo cell viability assay; type: cell-based; settings: Mus musculus, BaF3; 72 h, unadjusted for FBS
Description: (§2) The A431, HCC827, SK-BR-3, ZR-75–30, AU565, and Caco-2 cell lines were obtained from ATCC. The NCI-H1975 cell line was obtained from SIBS. The NCI-H3255 cell line was obtained from CoBioer. Engineered Ba/F3 cell lines were obtained from Crown Bioscience. MCKII-MDR1 cells were obtained from The Netherlands Cancer Institute. HEK293 cells were obtained from Invitrogen. A431 cells were cultured in DMEM (Life Technologies) with 10% FBS. HCC827, NCI-H1975, and AU565 cells were cultured in RPMI1640 (Invitrogen) with 10% FBS. NCI-H3255 cells were cultured in BEGM (Lonza) with 10% FBS. Ba/F3 EGFR-del E746_A750/C797S and Ba/F3 EGFR-L858R/C797S cells were cultured in RPMI (Invitrogen) with 10% FBS. SK-BR-3 cells were cultured in McCoy’s 5a (Invitrogen) with 10% FBS. ZR-75-30 cells were cultured in RPMI1640 (Invitrogen) with 20% FBS. Caco-2 and MCKII-MDR1 culture information is given in the Permeability Studies section. HEK293 cells were cultured in DMEM (Gibco) with 10% FBS, 0.1 mM NEAA, 25 mM HEPES, 100 U/mL penicillin-streptomycin, μg/mL blasticidin, and 400 μg/mL Geneticin. All cells were cultured in a humidified incubator with 5% CO2 at 37 °C.
(§3) Viability assays using A431, HCC827, NCI-H1975, NCI-H3255, Ba/F3 EGFR-del E746_A750/C797S, Ba/F3 EGFR-L858R/C797S, AU565, SK-BR-3, and ZR-75-30 cells were performed at Crown BioScience. Cells were plated into 96-well plates at 1500–7000 cells per well and dosed in triplicate (n = 3) in a nine-point, 4-fold dilution series with compounds (0.15 nM to 10 μM) in DMSO and incubated for 72 h. After 72 h, cell viability was assayed by CellTiter-Glo Luminescent Viability Assay (Promega). Dose–response curves were generated and used to calculate the IC50 values which were calculated on GraphPad Prism from the nonlinear regression equation fitted with a sigmoidal dose response and are presented as mean ± SEM.

[4] = system: Ba/F3 EGFR-del E746_A750/C797S cells; experiment: CellTiter-Glo cell viability assay; type: cell-based; settings: Mus musculus, BaF3; 72 h, unadjusted for FBS
Description: as §2, §3

[5] = system: HCC827 (EGFR mutation = exon19del); experiment: CellTiter-Glo cell viability assay; type: cell-based, human; settings: Homo sapiens, HCC827; 72 h, unadjusted for FBS
Description: (§4) The NCI-H3255 cell line was obtained from CoBioer. […] NCI-H3255 cells were cultured in BEGM (Lonza) with 10% FBS. […] All cells were cultured in a humidified incubator with 5% CO2 at 37 °C.

EGFR del E746_A750 = target: T1, EGFR del E746_A750 (Homo sapiens, UniProt P00533, DEL746-750); experiment: KINOMEScan KdELECT Kd determination; type: binding
T1 construct: purchased Eurofins DiscoverX (contract assay)
Description: In vitro kinase activity (inhibitor binding constants (Kd) and biochemical inhibition (IC50’s)) were assessed by Eurofins DiscoverX (Kd determinations) and Eurofins Cerep (biochemical IC50 determinations).

[6] = system: NCI-H3255 (EGFR mutation = L858R); experiment: CellTiter-Glo cell viability assay; type: cell-based, human; settings: NCI-H3255; for IC50: Homo sapiens, 72 h, unadjusted for FBS
Description: as §4

Solubility assay = type: physicochemical; settings: buffer; for solubility kinetic at 2 h: pH 7.4, aqueous buffer, read-out: Aq. Sol.; for solubility at 2 h: read-out: Aq. Solubility
Description: Solubility was determined by Pharmaron, Inc. and each compound was assessed in duplicate (n = 2) by adding 15 μL of compound stock solution (10 mM in DMSO) into a 96-well plate along with 485 μL of buffer followed by shaking at 25 °C, 1100 rpm for 2 h. Wells were filtered, and samples (5 μL) were taken followed by dilution with an equal volume of DMSO (5 μL) and 490 μL of aqueous solution. Samples were analyzed by LC-MS/MS.

Plasma stability [7] = type: in vitro ADME, human; settings: for Remaining Percentages / t1/2: human plasma; for t1/2: ∞ = no degradation
Description: as §1

[8] = Plasma protein binding by equilibrium dialysis; type: in vitro ADME, mouse
Description: Plasma protein binding and brain tissue binding were determined by Pharmaron, Inc. using the equilibrium dialysis method. […] Following incubation, the samples were analyzed by LC-MS/MS and the concentrations of the compounds were determined in the buffer and plasma solution chambers.

[9] = Lipophilicity, shake-flask; type: physicochemical; settings: 1-octanol/PBS; 1-octanol and PBS (pH 7.4); read-out: logD7.4
Description: Compound lipophilicity was determined by Pharmaron, Inc. using the shake-flask method with 1-octanol and PBS (pH 7.4). Each compound was assessed in duplicate (n = 2) at 1 μM in a 96-well plate shaken at 25 °C and 2000 rpm for 2 h. Samples were analyzed by liquid chromatography and tandem mass spectrometry (LC-MS/MS).

[10] = CD-1, mouse, mouse plasma, read-out: %Bound (converted)
[11] = CD-1, plasma, mouse, 5 μM, read-out: fu,plasma% / %Unbound

T1 sequence (P00533 with tags, fused parts or gaps DEL746-750): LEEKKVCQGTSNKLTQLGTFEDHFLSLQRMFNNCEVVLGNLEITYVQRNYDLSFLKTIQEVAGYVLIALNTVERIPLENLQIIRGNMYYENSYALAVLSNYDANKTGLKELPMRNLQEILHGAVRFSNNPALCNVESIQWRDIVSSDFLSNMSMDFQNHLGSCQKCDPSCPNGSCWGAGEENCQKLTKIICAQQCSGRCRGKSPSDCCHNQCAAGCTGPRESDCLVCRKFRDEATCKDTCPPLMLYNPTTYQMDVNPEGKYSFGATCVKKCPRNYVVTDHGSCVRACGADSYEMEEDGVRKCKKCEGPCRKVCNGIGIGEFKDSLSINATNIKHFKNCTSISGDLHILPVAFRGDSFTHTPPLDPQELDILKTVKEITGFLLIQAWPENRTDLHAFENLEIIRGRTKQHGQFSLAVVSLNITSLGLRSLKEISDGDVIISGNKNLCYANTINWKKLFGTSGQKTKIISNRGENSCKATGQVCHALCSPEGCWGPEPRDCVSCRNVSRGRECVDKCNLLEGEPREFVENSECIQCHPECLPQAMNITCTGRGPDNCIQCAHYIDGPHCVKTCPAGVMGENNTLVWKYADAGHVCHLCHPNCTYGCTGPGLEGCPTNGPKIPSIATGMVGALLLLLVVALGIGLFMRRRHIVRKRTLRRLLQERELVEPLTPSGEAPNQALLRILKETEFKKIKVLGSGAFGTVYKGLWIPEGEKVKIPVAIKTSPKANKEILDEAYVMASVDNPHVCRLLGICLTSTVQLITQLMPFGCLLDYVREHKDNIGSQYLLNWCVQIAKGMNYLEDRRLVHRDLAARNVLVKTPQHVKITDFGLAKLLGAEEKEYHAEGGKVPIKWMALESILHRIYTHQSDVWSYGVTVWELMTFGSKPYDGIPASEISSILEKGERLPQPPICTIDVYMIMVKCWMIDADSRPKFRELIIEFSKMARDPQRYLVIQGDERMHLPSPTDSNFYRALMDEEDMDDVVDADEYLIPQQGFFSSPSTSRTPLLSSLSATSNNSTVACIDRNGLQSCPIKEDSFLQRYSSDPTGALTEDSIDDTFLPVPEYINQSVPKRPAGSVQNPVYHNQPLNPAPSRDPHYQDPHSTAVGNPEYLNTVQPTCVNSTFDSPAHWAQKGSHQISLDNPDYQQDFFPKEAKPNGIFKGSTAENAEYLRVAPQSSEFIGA

Row | Structure (SMILES) | Remaining Percentages (Plasma stability [1]; 15 min) [%] | Remaining Percentages (Plasma stability [1]; 30 min) [%] | Remaining Percentages (Plasma stability [1]; 60 min) [%] | Remaining Percentages (Plasma stability [1]; 120 min) [%] | t1/2 (Plasma stability [1]) | hepatocyte CLint at 2 h, 1 µM [2] [µL/min/1e6 cells] | half-life at 2 h, 1 µM [2] [min] | Remaining Percentages ([2]; 15 min) [%] | Remaining Percentages ([2]; 30 min) [%] | Remaining Percentages ([2]; 60 min) [%] | Remaining Percentages ([2]; 90 min) [%] | Remaining Percentages ([2]; 120 min) [%] | IC50 [3] [nM] | IC50 [4] [nM] | IC50 [5] [nM] | Kd (EGFR del E746_A750) [nM] | IC50 [6] [nM] | solubility kinetic at 2 h (Solubility assay) [µM] | Remaining Percentages (Plasma stability [7]; 15 min) [%] | Remaining Percentages (Plasma stability [7]; 30 min) [%] | other results
1 | COc1cc2ncnc(Nc3cccc(Cl)c3F)c2cc1OCCON1CCOCC1 [Compound 7, N-(3-Chloro-2-fluorophenyl)-7-methoxy-6-(2-(morpholinooxy)ethoxy)quinazolin-4-amine] | 91.34 | 93.84 | 93.29 | 95.67 | ∞ | 126 | 11 | 38.18 | 15.61 | 2.48 | 0.92 | 0.74 | 5 | 2.5 | 0.31 | < 0.2 | 17 | 36 (≈ 16.2 µg/mL) | 100.68 | 93.61 | Remaining Percentages (Plasma stability [7]; 60 min): 100.91%; Remaining Percentages (Plasma stability [7]; 120 min): 97.91%; t1/2 (Plasma stability [7]): ∞; recovery at 6 h, 5 μM ([8]; CD-1, mouse, mouse plasma): 98.4%; remaining at 6 h, 5 μM ([8]; CD-1, mouse, mouse plasma): 102%; fraction unbound at 6 h, 5 μM [8, 10]: 0.0665; fraction unbound at 6 h, 5 μM [8, 11]: 0.0665; logD at 2 h, 1 µM [9]: 3.4
2 | COc1cc2ncnc(Nc3cccc(Cl)c3F)c2cc1OCCON1CCN(C)CC1 [Compound 9, N-(3-Chloro-2-fluorophenyl)-7-methoxy-6-(2-((4-methylpiperazin-1-yl)oxy)ethoxy)quinazolin-4-amine] | 96.53 | 95.56 | 99.37 | 96.60 | ∞ | 70 | 19.7 | 47.58 | 28.51 | 11.71 | 4.98 | 2.53 | 4.6 | 2.5 | 3.1 | < 0.2 | 7.2 | 199 (≈ 91.9 µg/mL) | 93.43 | 92.26 | remaining at 5 μM (Plasma stability [1]; Sprague-Dawley, rat, plasma): > 90%; improvement of IC50 over 6 [6]: roughly 12 fold; solubility at 2 h (Solubility assay; pH 1.2): > 300 µM; solubility at 2 h (Solubility assay; pH 6.8): 262 µM (≈ 121 µg/mL); Remaining Percentages (Plasma stability [7]; 60 min): 97.47%; Remaining Percentages (Plasma stability [7]; 120 min): 92.38%; t1/2 (Plasma stability [7]): ∞; remaining at 5 μM (Plasma stability [7]; human, plasma): > 90%; recovery at 6 h, 5 μM ([8]; CD-1, mouse, mouse plasma): 95.4%; remaining at 6 h, 5 μM ([8]; CD-1, mouse, mouse plasma): 92.9%; fraction unbound at 6 h, 5 μM [8, 10]: 0.0702; fraction unbound at 6 h, 5 µM [8, 11]: 0.07; fraction unbound at 6 h, 5 μM [8, 11]: 0.0702; logD at 2 h, 1 µM [9]: 2.8
